Test results taken from patent US10168342B2, “Lipid probes and uses thereof” (THE SCRIPPS RESEARCH INSTITUTE, priority 2015, dated 2019).
Where two headings read alike, the source gives them in different places.

Tests used:
[1] = biological target: AEA-DA lipid probe targets in Neuro2a cells (Mus musculus, UniProt Q9JKW0)
[2] = biological target: AEA-DA lipid probe targets in Neuro2a cells (Mus musculus, UniProt P70699)
[3] = biological target: T1, AEA-DA lipid probe targets in Neuro2a cells (Mus musculus, UniProt Q80ZW2)
T1 sequence (Q80ZW2 22-207): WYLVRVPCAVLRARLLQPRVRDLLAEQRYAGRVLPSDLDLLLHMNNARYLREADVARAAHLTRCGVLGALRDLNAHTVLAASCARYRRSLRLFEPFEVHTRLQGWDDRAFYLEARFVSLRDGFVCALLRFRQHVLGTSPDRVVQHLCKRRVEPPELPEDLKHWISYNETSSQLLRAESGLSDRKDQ

[4] = biological target: AEA-DA lipid probe targets in Neuro2a cells (Mus musculus, UniProt Q60716)
[5] = biological target: T2, AEA-DA lipid probe targets in Neuro2a cells (Mus musculus, UniProt Q9DBL9)
T2 sequence (Q9DBL9 1-351): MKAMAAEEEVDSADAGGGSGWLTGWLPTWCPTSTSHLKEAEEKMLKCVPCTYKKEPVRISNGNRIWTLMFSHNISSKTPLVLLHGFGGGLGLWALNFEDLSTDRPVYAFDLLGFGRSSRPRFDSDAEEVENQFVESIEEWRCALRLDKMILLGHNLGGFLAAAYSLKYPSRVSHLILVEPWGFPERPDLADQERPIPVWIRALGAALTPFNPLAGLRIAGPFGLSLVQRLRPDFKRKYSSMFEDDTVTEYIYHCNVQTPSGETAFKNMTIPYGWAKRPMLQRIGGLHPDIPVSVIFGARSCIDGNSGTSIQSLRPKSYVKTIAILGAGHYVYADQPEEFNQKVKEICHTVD

[6] = biological target: T3, AEA-DA lipid probe targets in Neuro2a cells (Mus musculus, UniProt Q99P72)
T3 sequence (Q99P72 1-1162): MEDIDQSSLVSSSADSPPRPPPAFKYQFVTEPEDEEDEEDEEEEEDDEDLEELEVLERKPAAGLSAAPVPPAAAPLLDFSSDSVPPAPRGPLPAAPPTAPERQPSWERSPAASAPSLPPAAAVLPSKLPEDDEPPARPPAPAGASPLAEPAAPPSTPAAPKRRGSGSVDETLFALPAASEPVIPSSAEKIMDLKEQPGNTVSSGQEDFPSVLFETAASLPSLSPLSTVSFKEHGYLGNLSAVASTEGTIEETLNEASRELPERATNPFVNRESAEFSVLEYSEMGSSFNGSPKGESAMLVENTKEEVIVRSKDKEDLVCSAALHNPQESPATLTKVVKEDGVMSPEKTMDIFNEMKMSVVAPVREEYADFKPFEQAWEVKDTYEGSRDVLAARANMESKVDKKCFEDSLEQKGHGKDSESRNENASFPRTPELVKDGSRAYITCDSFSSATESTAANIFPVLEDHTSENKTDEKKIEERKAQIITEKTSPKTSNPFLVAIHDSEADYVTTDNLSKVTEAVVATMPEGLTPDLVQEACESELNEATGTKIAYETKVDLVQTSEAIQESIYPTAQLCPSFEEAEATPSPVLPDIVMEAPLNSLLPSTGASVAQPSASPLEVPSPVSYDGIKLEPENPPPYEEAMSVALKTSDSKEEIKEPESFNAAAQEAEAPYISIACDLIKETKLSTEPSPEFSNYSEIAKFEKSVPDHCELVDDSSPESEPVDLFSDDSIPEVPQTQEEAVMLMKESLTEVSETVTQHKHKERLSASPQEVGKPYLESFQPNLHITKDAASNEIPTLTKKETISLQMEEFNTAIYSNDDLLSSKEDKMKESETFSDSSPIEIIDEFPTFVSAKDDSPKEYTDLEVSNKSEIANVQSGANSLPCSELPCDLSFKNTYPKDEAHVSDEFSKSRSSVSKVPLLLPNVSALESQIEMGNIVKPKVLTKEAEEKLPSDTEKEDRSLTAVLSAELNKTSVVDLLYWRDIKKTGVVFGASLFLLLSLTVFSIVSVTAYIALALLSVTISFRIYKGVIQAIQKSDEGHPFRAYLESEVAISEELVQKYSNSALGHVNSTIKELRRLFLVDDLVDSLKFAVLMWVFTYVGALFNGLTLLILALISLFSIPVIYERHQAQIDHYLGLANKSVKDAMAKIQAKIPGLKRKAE

[7] = biological target: T4, AEA-DA lipid probe targets in Neuro2a cells (Mus musculus, UniProt Q9CPQ3); conditions: for SILAC ratio, TOMM22 (Q9CPQ3): Neuro2a cells, AEA-DA probe
T4 sequence (Q9CPQ3 1-142): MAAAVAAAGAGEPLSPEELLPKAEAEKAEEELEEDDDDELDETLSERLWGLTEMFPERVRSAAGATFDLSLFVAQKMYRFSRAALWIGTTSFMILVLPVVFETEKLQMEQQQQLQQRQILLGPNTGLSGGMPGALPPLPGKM

[8] = biological target: T5, AEA-DA lipid probe targets in Neuro2a cells (Mus musculus, UniProt Q61712); conditions: for SILAC ratio, DNAJC1 (Q96KC8): Neuro2a cells, AEA-DA probe
T5 sequence (Q61712 44-552): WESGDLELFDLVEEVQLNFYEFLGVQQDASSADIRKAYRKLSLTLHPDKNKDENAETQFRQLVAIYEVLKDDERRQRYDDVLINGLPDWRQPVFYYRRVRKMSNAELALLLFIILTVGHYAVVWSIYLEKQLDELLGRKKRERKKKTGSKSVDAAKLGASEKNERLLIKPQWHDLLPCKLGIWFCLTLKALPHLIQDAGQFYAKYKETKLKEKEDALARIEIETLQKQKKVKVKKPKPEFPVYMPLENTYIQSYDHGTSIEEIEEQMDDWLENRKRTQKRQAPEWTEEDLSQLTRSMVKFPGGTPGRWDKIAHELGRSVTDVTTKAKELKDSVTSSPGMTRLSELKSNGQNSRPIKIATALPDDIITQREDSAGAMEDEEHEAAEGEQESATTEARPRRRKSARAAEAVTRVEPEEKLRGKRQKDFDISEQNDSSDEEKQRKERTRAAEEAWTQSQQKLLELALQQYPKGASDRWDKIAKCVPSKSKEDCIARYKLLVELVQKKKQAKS

[9] = biological target: AEA-DA lipid probe targets in Neuro2a cells (Mus musculus, UniProt Q61584)
Chain of AEA-DA lipid probe targets in Neuro2a cells (Mus musculus, UniProt Q61584) (Q61584 whole entry): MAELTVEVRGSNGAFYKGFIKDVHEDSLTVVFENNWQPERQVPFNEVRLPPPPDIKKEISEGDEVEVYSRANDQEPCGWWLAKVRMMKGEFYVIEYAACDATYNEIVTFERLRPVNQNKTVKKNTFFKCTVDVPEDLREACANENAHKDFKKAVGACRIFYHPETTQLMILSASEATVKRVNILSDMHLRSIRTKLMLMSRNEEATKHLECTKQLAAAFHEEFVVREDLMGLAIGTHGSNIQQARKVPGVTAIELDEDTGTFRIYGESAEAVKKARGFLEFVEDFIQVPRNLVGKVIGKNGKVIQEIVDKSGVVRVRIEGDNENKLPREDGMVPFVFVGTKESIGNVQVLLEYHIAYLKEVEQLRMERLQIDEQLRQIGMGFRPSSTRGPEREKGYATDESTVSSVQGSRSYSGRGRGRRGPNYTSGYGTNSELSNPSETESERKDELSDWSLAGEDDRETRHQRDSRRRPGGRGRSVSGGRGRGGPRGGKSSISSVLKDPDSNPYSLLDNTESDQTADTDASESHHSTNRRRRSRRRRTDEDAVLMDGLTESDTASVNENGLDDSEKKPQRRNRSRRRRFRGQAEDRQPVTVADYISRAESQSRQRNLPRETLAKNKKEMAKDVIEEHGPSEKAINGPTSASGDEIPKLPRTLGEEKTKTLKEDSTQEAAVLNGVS

Chain of AEA-DA lipid probe targets in Neuro2a cells (Mus musculus, UniProt Q60716) (Q60716 24-537): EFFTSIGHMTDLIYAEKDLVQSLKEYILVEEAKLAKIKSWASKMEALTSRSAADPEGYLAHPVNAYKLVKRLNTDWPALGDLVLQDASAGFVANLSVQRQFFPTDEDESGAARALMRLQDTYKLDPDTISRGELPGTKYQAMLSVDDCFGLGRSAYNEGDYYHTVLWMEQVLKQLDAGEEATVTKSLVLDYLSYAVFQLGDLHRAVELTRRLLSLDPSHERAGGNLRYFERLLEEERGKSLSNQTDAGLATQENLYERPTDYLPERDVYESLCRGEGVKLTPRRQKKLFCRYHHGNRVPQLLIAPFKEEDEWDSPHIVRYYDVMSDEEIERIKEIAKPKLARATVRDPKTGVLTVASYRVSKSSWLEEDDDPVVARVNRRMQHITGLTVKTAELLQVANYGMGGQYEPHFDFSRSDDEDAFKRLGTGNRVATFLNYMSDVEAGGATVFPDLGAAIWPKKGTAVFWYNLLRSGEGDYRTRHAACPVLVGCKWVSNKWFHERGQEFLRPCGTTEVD
Chain of AEA-DA lipid probe targets in Neuro2a cells (Mus musculus, UniProt P70699) (P70699 70-953): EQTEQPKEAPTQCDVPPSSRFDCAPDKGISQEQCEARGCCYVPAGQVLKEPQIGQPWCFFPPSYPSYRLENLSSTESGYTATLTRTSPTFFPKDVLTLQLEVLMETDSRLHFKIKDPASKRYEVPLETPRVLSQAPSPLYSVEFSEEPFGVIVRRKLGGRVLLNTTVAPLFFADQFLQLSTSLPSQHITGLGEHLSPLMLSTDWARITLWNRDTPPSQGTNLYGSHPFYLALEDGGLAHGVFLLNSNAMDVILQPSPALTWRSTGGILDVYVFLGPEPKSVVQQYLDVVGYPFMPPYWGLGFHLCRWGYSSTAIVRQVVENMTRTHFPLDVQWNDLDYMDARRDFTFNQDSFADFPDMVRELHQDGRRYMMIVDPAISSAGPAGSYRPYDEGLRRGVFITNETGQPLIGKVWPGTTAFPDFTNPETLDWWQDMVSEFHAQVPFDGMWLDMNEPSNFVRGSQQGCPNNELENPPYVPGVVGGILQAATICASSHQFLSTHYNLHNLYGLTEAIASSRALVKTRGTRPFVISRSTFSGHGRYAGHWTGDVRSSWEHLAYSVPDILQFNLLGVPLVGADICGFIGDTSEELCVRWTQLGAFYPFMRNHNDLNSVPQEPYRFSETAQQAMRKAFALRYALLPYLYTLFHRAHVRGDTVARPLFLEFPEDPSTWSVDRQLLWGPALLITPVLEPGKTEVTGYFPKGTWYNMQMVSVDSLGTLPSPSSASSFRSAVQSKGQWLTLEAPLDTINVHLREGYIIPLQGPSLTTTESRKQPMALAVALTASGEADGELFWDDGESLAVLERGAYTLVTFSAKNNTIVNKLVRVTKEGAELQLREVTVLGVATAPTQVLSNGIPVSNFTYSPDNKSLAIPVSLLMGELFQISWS
Chain of AEA-DA lipid probe targets in Neuro2a cells (Mus musculus, UniProt Q9JKW0) (Q9JKW0 whole entry): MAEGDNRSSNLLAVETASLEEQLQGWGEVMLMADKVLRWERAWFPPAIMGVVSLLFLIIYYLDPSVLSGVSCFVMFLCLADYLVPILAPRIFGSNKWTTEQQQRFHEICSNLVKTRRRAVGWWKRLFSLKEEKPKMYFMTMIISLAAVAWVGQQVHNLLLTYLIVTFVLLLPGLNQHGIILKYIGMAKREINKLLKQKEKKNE

C=CCN(C)CCCCCCOc1ccc(C(=O)c2ccc(Br)cc2)c(F)c1 [Ro 48-8071, reference compound]
SILAC ratio Arl6ip1 ([1]; competitor 25 μM): 1.1
SILAC ratio Gaa ([2]; competitor 25 μM): 0.5
SILAC ratio Them6 ([3]; competitor 25 μM): 1.0
SILAC ratio P4ha2 ([4]; competitor 25 μM): 1.0
SILAC ratio, Abhd5 ([5]; competitor 25 μM): 1.4
SILAC ratio, Rtn4 ([6]; competitor 25 μM): 1.0
SILAC ratio, TOMM22 (Q9CPQ3) ([7]; competitor 25 μM): 1.0
SILAC ratio, Tomm22 ([7]; competitor 25 μM): 1.0
SILAC ratio, DNAJC1 (Q96KC8) ([8]; competitor 25 μM): 1.2
SILAC ratio, Dnajc1 ([8]; competitor 25 μM): 1.2
SILAC ratio Fxr1 ([9]; competitor 25 μM): 0.9

CN1CCN(C(=O)c2[nH]c3ccc([N+](=O)[O-])cc3c2-c2ccccc2)CC1 [MJN228, (4-Methylpiperazin-1-yl)(5-nitro-3-phenyl-1H-indol-2-yl)methanone]
SILAC ratio Arl6ip1 ([1]; competitor 10 μM): 0.8
SILAC ratio Arl6ip1 ([1]; competitor 25 μM): 1.6
SILAC ratio Arl6ip1 ([1]; competitor 100 μM): 1.5
SILAC ratio Gaa ([2]; competitor 10 μM): 1.0
SILAC ratio Gaa ([2]; competitor 25 μM): 1.2
SILAC ratio Gaa ([2]; competitor 50 μM): 1.4
SILAC ratio Gaa ([2]; competitor 100 μM): 1.2
SILAC ratio Them6 ([3]; competitor 10 μM): 1.2
SILAC ratio Them6 ([3]; competitor 25 μM): 1.3
SILAC ratio Them6 ([3]; competitor 100 μM): 1.3
SILAC ratio P4ha2 ([4]; competitor 10 μM): 1.2
SILAC ratio P4ha2 ([4]; competitor 25 μM): 1.3
SILAC ratio P4ha2 ([4]; competitor 50 μM): 1.0
SILAC ratio P4ha2 ([4]; competitor 100 μM): 1.0
SILAC ratio, Abhd5 ([5]; competitor 10 μM): 1.6
SILAC ratio, Abhd5 ([5]; competitor 25 μM): 2.2
SILAC ratio, Abhd5 ([5]; competitor 50 μM): 4.0
SILAC ratio, Abhd5 ([5]; competitor 100 μM): 14.3
SILAC ratio, Rtn4 ([6]; competitor 10 μM): 1.0
SILAC ratio, Rtn4 ([6]; competitor 25 μM): 1.3
SILAC ratio, Rtn4 ([6]; competitor 50 μM): 1.2
SILAC ratio, Rtn4 ([6]; competitor 100 μM): 1.4
SILAC ratio, TOMM22 (Q9CPQ3) ([7]; competitor 25 μM): 1.2
SILAC ratio, Tomm22 ([7]; competitor 10 μM): 1.1
SILAC ratio, Tomm22 ([7]; competitor 25 μM): 1.2
SILAC ratio, Tomm22 ([7]; competitor 50 μM): 1.2
SILAC ratio, Tomm22 ([7]; competitor 100 μM): 1.8
SILAC ratio, DNAJC1 (Q96KC8) ([8]; competitor 25 μM): 1.6
SILAC ratio, Dnajc1 ([8]; competitor 10 μM): 1.0
SILAC ratio, Dnajc1 ([8]; competitor 25 μM): 1.6
SILAC ratio, Dnajc1 ([8]; competitor 50 μM): 1.5
SILAC ratio Fxr1 ([9]; competitor 10 μM): 1.2
SILAC ratio Fxr1 ([9]; competitor 25 μM): 1.3
SILAC ratio Fxr1 ([9]; competitor 50 μM): 1.1
SILAC ratio Fxr1 ([9]; competitor 100 μM): 1.1

CCCCC/C=C\C/C=C\C/C=C\C/C=C\CCCC(=O)NCCO [AEA, anandamide, reference compound]
SILAC ratio Arl6ip1 ([1]; competitor 200 μM): 1.5
SILAC ratio Gaa ([2]; competitor 200 μM): 1.4
SILAC ratio Them6 ([3]; competitor 200 μM): 1.9
SILAC ratio P4ha2 ([4]; competitor 200 μM): 1.0
SILAC ratio, Abhd5 ([5]; competitor 200 μM): 1.3
SILAC ratio, Rtn4 ([6]; competitor 200 μM): 1.8
SILAC ratio, TOMM22 (Q9CPQ3) ([7]; competitor 200 μM): 1.4
SILAC ratio, Tomm22 ([7]; competitor 200 μM): 1.4
SILAC ratio, DNAJC1 (Q96KC8) ([8]; competitor 200 μM): 2.1
SILAC ratio, Dnajc1 ([8]; competitor 200 μM): 2.1
SILAC ratio Fxr1 ([9]; competitor 200 μM): 1.1

CN1CCN(C(=O)c2c(-c3ccccc3)c3cc([N+](=O)[O-])ccc3n2C)CC1 [KML110, (1-Methyl-5-nitro-3-phenyl-1H-indol-2-yl)(4-methylpiperazin-1-yl)methanone]
SILAC ratio Arl6ip1 ([1]; competitor 25 μM): 1.4
SILAC ratio Gaa ([2]; competitor 25 μM): 1.6
SILAC ratio Them6 ([3]; competitor 25 μM): 1.3
SILAC ratio P4ha2 ([4]; competitor 25 μM): 1.3
SILAC ratio, Abhd5 ([5]; competitor 25 μM): 2.0
SILAC ratio, Rtn4 ([6]; competitor 25 μM): 1.4
SILAC ratio, Tomm22 ([7]; competitor 25 μM): 1.3
SILAC ratio Fxr1 ([9]; competitor 25 μM): 1.5

O=C(/C=C/c1cccnc1)NCCCCC1CCN(C(=O)c2ccccc2)CC1 [FK-866, reference compound]
SILAC ratio Arl6ip1 ([1]; competitor 25 μM): 1.0
SILAC ratio Gaa ([2]; competitor 25 μM): 1.1
SILAC ratio Them6 ([3]; competitor 25 μM): 1.0
SILAC ratio P4ha2 ([4]; competitor 25 μM): 1.1
SILAC ratio, Abhd5 ([5]; competitor 25 μM): 1.0
SILAC ratio, Rtn4 ([6]; competitor 25 μM): 1.1
SILAC ratio, TOMM22 (Q9CPQ3) ([7]; competitor 25 μM): 1.1
SILAC ratio, Tomm22 ([7]; competitor 25 μM): 1.1
SILAC ratio, DNAJC1 (Q96KC8) ([8]; competitor 25 μM): 1.4
SILAC ratio, Dnajc1 ([8]; competitor 25 μM): 1.4
SILAC ratio Fxr1 ([9]; competitor 25 μM): 1.4
